pIC50: −log10 of the molar value.
target: USP1 (construct USP1 (I-785, GG670, 671AA)/UAF1 (I-677)-Flag) (Homo sapiens (Human), UniProt O94782, G670A/G671A); experiment: Ubiquitin-Rhodamine 110 assay for USP1 activity; format: biochemical; conditions: USP1/UAF1 25 pM, Ub-Rh110 25 nM, 30 min preincubation
Procedure, shortened: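 Two formats with the USP1/UAF1 complex and 25 nM ubiquitin-rhodamine 110 in pH 8.0 Tris buffer with calcium, glutathione and detergent. Single-point screening used 10 µM, 100 pM enzyme and 45 min. Inhibition was set against no-enzyme and DMSO wells.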

USP1 (construct USP1 (I-785, GG670, 671AA)/UAF1 (I-677)-Flag), sequence (O94782 whole entry G670A/G671A): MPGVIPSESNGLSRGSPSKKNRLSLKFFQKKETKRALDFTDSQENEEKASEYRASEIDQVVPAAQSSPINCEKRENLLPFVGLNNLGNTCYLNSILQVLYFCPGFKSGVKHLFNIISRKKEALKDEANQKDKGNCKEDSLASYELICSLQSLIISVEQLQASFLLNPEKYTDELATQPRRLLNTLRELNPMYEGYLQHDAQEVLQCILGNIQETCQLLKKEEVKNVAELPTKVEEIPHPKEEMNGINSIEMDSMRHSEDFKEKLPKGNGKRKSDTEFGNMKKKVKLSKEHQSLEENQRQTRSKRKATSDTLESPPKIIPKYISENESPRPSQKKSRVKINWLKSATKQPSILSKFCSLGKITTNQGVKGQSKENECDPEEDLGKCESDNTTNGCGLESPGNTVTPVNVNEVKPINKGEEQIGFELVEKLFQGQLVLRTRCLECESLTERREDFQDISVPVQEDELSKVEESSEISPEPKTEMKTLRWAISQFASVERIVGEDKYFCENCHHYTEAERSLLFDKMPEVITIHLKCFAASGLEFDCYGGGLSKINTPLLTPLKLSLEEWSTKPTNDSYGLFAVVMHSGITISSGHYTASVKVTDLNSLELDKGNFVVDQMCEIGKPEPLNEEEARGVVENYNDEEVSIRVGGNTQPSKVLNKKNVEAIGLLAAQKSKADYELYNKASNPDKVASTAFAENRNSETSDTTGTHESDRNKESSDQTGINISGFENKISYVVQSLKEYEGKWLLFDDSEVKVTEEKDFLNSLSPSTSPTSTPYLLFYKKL
USP1 (construct USP1 (I-785, GG670, 671AA)/UAF1 (I-677)-Flag), sequence (Q8TAF3 whole entry partner): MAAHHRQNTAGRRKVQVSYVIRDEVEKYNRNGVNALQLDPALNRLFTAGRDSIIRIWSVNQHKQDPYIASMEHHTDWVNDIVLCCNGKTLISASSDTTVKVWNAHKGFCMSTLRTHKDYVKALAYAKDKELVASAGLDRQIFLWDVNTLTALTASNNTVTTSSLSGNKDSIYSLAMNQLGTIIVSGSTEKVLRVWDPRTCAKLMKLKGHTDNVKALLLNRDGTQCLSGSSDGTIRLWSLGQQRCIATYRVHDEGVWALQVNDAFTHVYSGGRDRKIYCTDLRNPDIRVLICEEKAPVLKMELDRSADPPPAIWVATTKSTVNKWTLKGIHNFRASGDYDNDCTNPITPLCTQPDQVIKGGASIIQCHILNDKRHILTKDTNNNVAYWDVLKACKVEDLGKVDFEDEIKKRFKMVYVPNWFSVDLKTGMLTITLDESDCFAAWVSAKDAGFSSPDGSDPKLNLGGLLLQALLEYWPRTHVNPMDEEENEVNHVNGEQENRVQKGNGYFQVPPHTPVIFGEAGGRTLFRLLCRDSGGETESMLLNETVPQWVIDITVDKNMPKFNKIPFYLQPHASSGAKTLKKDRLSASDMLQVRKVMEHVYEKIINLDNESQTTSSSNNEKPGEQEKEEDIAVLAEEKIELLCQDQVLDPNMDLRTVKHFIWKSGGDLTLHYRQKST

CC(C)NC(=O)N(C)c1ccc(Cn2c(=O)n(C)c3cnc(-c4ccccc4C(C)C)nc32)cc1 [Compound I-484, 3-isopropyl-1-(4-((2-(2-isopropylphenyl)-7-methyl-8-oxo-7,8-dihydro-9H-purin-9-yl)methyl)phenyl)-1-methylurea] and CC(C)c1ccccc1-c1ncc2c(n1)n(Cc1ccc(N(C)C(=O)NC3CC3)cc1)c(=O)n2C [Compound I-486, 3-cyclopropyl-1-(4-((2-(2-isopropylphenyl)-7-methyl-8-oxo-7,8-dihydro-9H-purin-9-yl)methyl)phenyl)-1-methylurea] fall in the same range of pIC50: 5.70 to 6.70 for the first, 5.70 to 6.70 for the second.

First: COCCNC(=O)N(C)c1ccc(Cn2c(=O)n(C)c3cnc(-c4ccccc4C(C)C)nc32)cc1 [Compound I-485, 1-(4-((2-(2-isopropylphenyl)-7-methyl-8-oxo-7,8-dihydro-9H-purin-9-yl)methyl)phenyl)-3-(2-methoxyethyl)-1-methylurea]
Second: COCCN(C)c1ccc(Cn2c(=O)n(C)c3cnc(-c4ccccc4C(C)C)nc32)cc1 [Compound I-491, 2-(2-isopropylphenyl)-9-(4-((2-methoxyethyl)(methyl)amino)benzyl)-7-methyl-7,9-dihydro-8H-purin-8-one]
The pIC50 of the first is lower: less than 5.70 for the first, 5.70 to 6.70 for the second.

Going from CC(C)NC(=O)N1CCC(F)(Cn2c(=O)[nH]c3cnc(-c4ccccc4C(C)C)nc32)CC1 [Compound I-487, 4-fluoro-N-isopropyl-4-((2-(2-isopropylphenyl)-8-oxo-7,8-dihydro-9H-purin-9-yl)methyl)piperidine-1-carboxamide] to Cc1nc(N2CCC(F)(Cn3c(=O)[nH]c4cnc(-c5ccccc5C(C)C)nc43)CC2)c(C)s1 [Compound I-514, 9-((1-(2,5-Dimethylthiazol-4-yl)-4-fluoropiperidin-4-yl)methyl)-2-(2-isopropylphenyl)-7,9-dihydro-8H-purin-8-one], the pIC50 rises from less than 5.70 to greater than 7.30.

CC(C)c1ccccc1-c1ncc2c(n1)n(Cc1ccc(NCC3CC3)cc1)c(=O)n2C [Compound I-488, 9-(4-((cyclopropylmethyl)amino)benzyl)-2-(2-isopropylphenyl)-7-methyl-7,9-dihydro-8H-purin-8-one] and COCCNc1ccc(Cn2c(=O)n(C)c3cnc(-c4ccccc4C(C)C)nc32)cc1 [Compound I-489, 2-(2-isopropylphenyl)-9-(4-((2-methoxyethyl)amino)benzyl)-7-methyl-7,9-dihydro-8H-purin-8-one] fall in the same range of pIC50: 6.70 to 7.30 for the first, 6.70 to 7.30 for the second.

First: CC(C)c1ccccc1-c1ncc2c(n1)n(Cc1ccc(N(C)CC3CC3)cc1)c(=O)n2C [Compound I-490, 9-(4-((cyclopropylmethyl)(methyl)amino)benzyl)-2-(2-isopropylphenyl)-7-methyl-7,9-dihydro-8H-purin-8-one]
Second: CCn1ccnc1-c1ccc(Cn2c(=O)n(C)c3cnc(-c4ccccc4C(C)C)nc32)cc1 [Compound I-496, 9-(4-(1-ethyl-1H-imidazol-2-yl)benzyl)-2-(2-isopropylphenyl)-7-methyl-7,9-dihydro-8H-purin-8-one]
The pIC50 of the first is lower: 5.70 to 6.70 for the first, greater than 7.30 for the second.

CC(C)c1ccccc1-c1ncc2c(n1)n(CC1CCN(c3nncs3)CC1)c(=O)n2C [Compound I-492, 9-((1-(1,3,4-thiadiazol-2-yl)piperidin-4-yl)methyl)-2-(2-isopropylphenyl)-7-methyl-7,9-dihydro-8H-purin-8-one] and CC(C)c1ccccc1-c1ncc2c(n1)n(CC1CCN(c3ncccn3)CC1)c(=O)n2C [Compound I-493, 2-(2-isopropylphenyl)-7-methyl-9-((1-(pyrimidin-2-yl)piperidin-4-yl)methyl)-7,9-dihydro-8H-purin-8-one] cannot be ordered by pIC50: less than 5.70 for the first, less than 5.70 for the second.

Cc1nc(N2CCC(Cn3c(=O)n(C)c4cnc(-c5ccccc5C(C)C)nc43)CC2)c(C)s1 [Compound I-494, 9-((1-(2,5-dimethylthiazol-4-yl)piperidin-4-yl)methyl)-2-(2-isopropylphenyl)-7-methyl-7,9-dihydro-8H-purin-8-one] and Cc1cn(C)c(N2CCC(Cn3c(=O)n(C)c4cnc(-c5ccccc5C(C)C)nc43)CC2)n1 [Compound I-501, 9-((1-(1,4-Dimethyl-1H-imidazol-2-yl)piperidin-4-yl)methyl)-2-(2-isopropylphenyl)-7-methyl-7,9-dihydro-8H-purin-8-one] fall in the same range of pIC50: 6.70 to 7.30 for the first, 6.70 to 7.30 for the second.

CC(C)c1ccccc1-c1ncc2[nH]c(=O)n(C3CCC34CN(c3cccnc3)C4)c2n1 (stereo not drawn) [Compound I-495, 2-(2-isopropylphenyl)-9-(2-(pyridin-3-yl)-2-azaspiro[3.3]heptan-5-yl)-7,9-dihydro-8H-purin-8-one] and CC(C)c1ccccc1-c1ncc2[nH]c(=O)n(CC3(F)CCN(c4cccnc4)CC3)c2n1 [Compound I-505, 9-((4-Fluoro-1-(pyridin-3-yl)piperidin-4-yl)methyl)-2-(2-isopropylphenyl)-7,9-dihydro-8H-purin-8-one] fall in the same range of pIC50: 5.70 to 6.70 for the first, 5.70 to 6.70 for the second.

CC(C)c1ccccc1-c1ncc2c(n1)n(Cc1ccc(-c3nccn3C(C)C)cc1)c(=O)n2C [Compound I-497, 9-(4-(1-isopropyl-1H-imidazol-2-yl)benzyl)-2-(2-isopropylphenyl)-7-methyl-7,9-dihydro-8H-purin-8-one] and CC(C)c1ccccc1-c1ncc2c(n1)n(Cc1ccc(-c3nccn3C(F)F)cc1)c(=O)n2C [Compound I-500, 9-(4-(1-(difluoromethyl)-1H-imidazol-2-yl)benzyl)-2-(2-isopropylphenyl)-7-methyl-7,9-dihydro-8H-purin-8-one] cannot be ordered by pIC50: greater than 7.30 for the first, greater than 7.30 for the second.

COCCn1ccnc1-c1ccc(Cn2c(=O)n(C)c3cnc(-c4ccccc4C(C)C)nc32)cc1 [Compound I-498, 2-(2-isopropylphenyl)-9-(4-(1-(2-methoxyethyl)-1H-imidazol-2-yl)benzyl)-7-methyl-7,9-dihydro-8H-purin-8-one] and CC(C)c1ccccc1-c1ncc2c(n1)n(Cc1ccc(-c3nccn3C3CCNCC3)cc1)c(=O)n2C [Compound I-499, 2-(2-isopropylphenyl)-7-methyl-9-(4-(1-(piperidin-4-yl)-1H-imidazol-2-yl)benzyl)-7,9-dihydro-8H-purin-8-one] cannot be ordered by pIC50: greater than 7.30 for the first, greater than 7.30 for the second.

Going from CC(C)c1ccccc1-c1ncc2[nH]c(=O)n(CC3CN(c4nccc(C(F)(F)F)n4)C3)c2n1 [Compound I-502, 2-(2-Isopropylphenyl)-9-((1-(4-(trifluoromethyl)pyrimidin-2-yl)azetidin-3-yl)methyl)-7,9-dihydro-8H-purin-8-one] to CC(C)c1ccccc1-c1ncc2[nH]c(=O)n(Cc3ccc(-c4nc(C(F)(F)F)cn4CCO)cc3)c2n1 [Compound I-506, 9-(4-(1-(2-hydroxyethyl)-4-(trifluoromethyl)-1H-imidazol-2-yl)benzyl)-2-(2-isopropylphenyl)-7,9-dihydro-8H-purin-8-one], the pIC50 rises from less than 5.70 to greater than 7.30.

Compared with Cc1cc(C(=O)N(C)C)nn1-c1ccc(Cn2c(=O)[nH]c3cnc(-c4ccccc4C(C)C)nc32)cc1 [Compound I-503, 1-(4-((2-(2-Isopropylphenyl)-8-oxo-7,8-dihydro-9H-purin-9-yl)methyl)phenyl)-N,N,5-trimethyl-1H-pyrazole-3-carboxamide], Cc1cc(C(=O)N(C)C)nn1-c1ccc(Cn2c(=O)[nH]c3cnc(-c4ccccc4C4CC4)nc32)cc1 [Compound I-504, 1-(4-((2-(2-Cyclopropylphenyl)-8-oxo-7,8-dihydro-9H-purin-9-yl)methyl)phenyl)-N,N,5-trimethyl-1H-pyrazole-3-carboxamide] is lower in pIC50: greater than 7.30 for the first, 6.70 to 7.30 for the second. The first is the more potent here.

Compared with CCn1c(=O)n(Cc2ccc(-c3nc(C(F)(F)F)cn3C)cc2)c2nc(-c3cccnc3C(C)C)ncc21 [Compound I-507, 7-Ethyl-2-(2-isopropylpyridin-3-yl)-9-(4-(1-methyl-4-(trifluoromethyl)-1H-imidazol-2-yl)benzyl)-7,9-dihydro-8H-purin-8-one], CC(C)c1ncccc1-c1ncc2c(n1)n(Cc1ccc(-c3nc(C4CC4)cn3C)cc1)c(=O)n2C [Compound I-515, 9-(4-(4-cyclopropyl-1-methyl-1H-imidazol-2-yl)benzyl)-2-(2-isopropylpyridin-3-yl)-7-methyl-7,9-dihydro-8H-purin-8-one] is lower in pIC50: greater than 7.30 for the first, 6.70 to 7.30 for the second.

CC(C)c1ccccc1-c1ncc2[nH]c(=O)n(Cc3cnc(-n4cccn4)cn3)c2n1 [Compound I-508, 9-((5-(1H-Pyrazol-1-yl)pyrazin-2-yl)methyl)-2-(2-isopropylphenyl)-7,9-dihydro-8H-purin-8-one] and CC(C)c1ccccc1-c1ncc2[nH]c(=O)n(Cc3ncc(-n4cccn4)cn3)c2n1 [Compound I-509, 9-((5-(1H-pyrazol-1-yl)pyrimidin-2-yl)methyl)-2-(2-isopropylphenyl)-7,9-dihydro-8H-purin-8-one] cannot be ordered by pIC50: less than 5.70 for the first, less than 5.70 for the second.

Compared with Cc1cc(C)n(-c2cnc(Cn3c(=O)[nH]c4cnc(-c5ccccc5C(C)C)nc43)cn2)n1 [Compound I-510, 9-((5-(3,5-Dimethyl-1H-pyrazol-1-yl)pyrazin-2-yl)methyl)-2-(2-isopropylphenyl)-7,9-dihydro-8H-purin-8-one], Cc1cc(C)n(-c2cnc(Cn3c(=O)[nH]c4cnc(-c5ccccc5C(C)C)nc43)nc2)n1 [Compound I-511, 9-((5-(3,5-Dimethyl-1H-pyrazol-1-yl)pyrimidin-2-yl)methyl)-2-(2-isopropylphenyl)-7,9-dihydro-8H-purin-8-one] is lower in pIC50: 6.70 to 7.30 for the first, 5.70 to 6.70 for the second.

Compared with CC(C)c1ccccc1-c1ncc2[nH]c(=O)n(Cc3ccc(N4CCCC4=O)cc3)c2n1 [Compound I-512, 2-(2-Isopropylphenyl)-9-(4-(2-oxopyrrolidin-1-yl)benzyl)-7,9-dihydro-8H-purin-8-one], CC(C)c1ccccc1-c1ncc2[nH]c(=O)n(Cc3ccc(-c4nnn[nH]4)cc3)c2n1 [Compound I-513, 9-(4-(1H-tetrazol-5-yl)benzyl)-2-(2-isopropylphenyl)-7,9-dihydro-8H-purin-8-one] is lower in pIC50: 6.70 to 7.30 for the first, less than 5.70 for the second.

CC(C)c1cnccc1-c1ncc2c(n1)n(Cc1ccc(-n3cccn3)cc1)c(=O)n2C [Compound I-516, 9-(4-(1H-Pyrazol-1-yl)benzyl)-2-(3-isopropylpyridin-4-yl)-7-methyl-7,9-dihydro-8H-purin-8-one] showed a pIC50 of less than 5.70.

From patent publication US10189841B2, “Purinones as ubiquitin-specific protease 1 inhibitors” (Forma Therapeutics, Inc., priority 2015, dated 2019)
